Results as given in patent US20130130306A1, “ZN (II) BASED COLORIMETRIC SENSOR AND PROCESS FOR THE PREPARATION THEREOF” (COUNCIL OF SCIENTIFIC & INDUSTRIAL RESEARCH, priority 2010, published 2013).

Experiments:
[1] = Spectrophotometric titration, inclusion complex formation with α-CD; format: binding; details: α-CD 0-2.3 mM
Experimental: Preliminary spectral studies reveal that absorption maxima for L.Zn (Scheme 1, Formula 1A) (463 nm) tend to shift to shorter wavelength (458 nm) on addition of aqueous solution of α-CD (0-2.3 mM) in excess to the […] solution of L.Zn (Scheme 1, Formula 1A). Formation of host-guest type inclusion complex on addition of trans-1,2-bis-(4-pyridyl)ethylene, 4,4′-azopyridine (AZP) and some related bipyridine/biphenyl molecules in α-CD is reported by several researcher (Shukla, A. D.; Bajaj, H. C.; Das, A. Angew. Chem. Int. Ed. 2001, 40, 446.; Shukla, A. D.; Bajaj, H. C., Das, A. Nat. Acad. Science, 2002, 114, 431.; Beer, A. J.; Macartney, D. H. Inorg. Chem. 2000, 39, 1410.; Macartney, D. H.; Waddling, C. A.; Inorg. Chem. 1994, 33, 5912.; Philip, D.; Stoddart, J. F. Angew. Chem. Int. Ed. 1996, 35, 1154). It is also reported that inclusion in these compounds in the CD cavity influences the HOMO-LUMO energy gap and there by the absorption spectral bands-though the perturbation of the energy levels are not reported to be an appreciable one. Thus, in this present study, the observed shift of 5 nm could be attributed to the inclusion phenomena and the formation of a pseudo-rotaxane complex.
General formula that was used for calculating the binding constants from UV-vis titrations is given below:
Binding Constant,K=[L.Zn.CD]/{[L.Zn]free[CD]free} (5) […]

[2] = system: eukaryotic and prokaryotic (Gram +ve/Gram −ve) cells; experiment: Staining of eukaryotic and prokaryotic cells, time needed and differentiation; format: cell-based
Experimental: Using the present Zn(II)-reagent (L.Zn) in presence of α-CD, eukaryotic and prokaryotic (Gram +ve/Gram −ve) cells could be stained with only 2 minutes incubation; while for the previous reagent (1.Zn) cells were needed to be incubated for 10 minutes for color development. Further, intensity of color of the stained cell (using present Zn(II)-complex was much more intense as compared to that reported earlier.
We also explored the possibility of using L.Zn/L.Zn.α-CD as the staining agent for prokaryotes (Gram +ve and Gram −ve bacterial cells). […] As expected stained cells for Gram +ve bacteria appeared longer as compared to those of the stained Gram −ve bacteria. The difference in the staining intensity for two different bacteria with the L.Zn.α-CD (Scheme 2) could be much better understood after going into the depth of cell biology of each bacterial cells and the detailed biochemistry involved while staining; besides, difference in cell structure and cell wall composition of the respective bacteria. […] Changes on the cell surfaces on binding of the dye, L.Zn (Scheme 1, Formula 1A) were also evident from the SEM images recorded for Gram −ve and Gram +ve bacteria, in absence and presence of staining agent (FIGS. 11C to 11F). […] The growth profile of Eukaryotic Yeast cells (Saccharomyces cerevisiae) and Prokaryotic bacterial cells ([…]) in an aqueous culture medium in absence and presence of L.Zn (Scheme 1, Formula 1A) are shown in FIG. 12. Change in absorbance (at λmax=600 nm) vs time (t) was plotted up to 30 h; as no appreciable change in growth was observed thereafter. […] FIGS. 12a, 12c and 12e show the actual growth curve of Saccharomyces cerevisiae, Pseudomonas fluorescence and Bacillus megaterium, respectively with time. While, FIGS. 12b, 12d and 12f show relative build up of ATP in cytoplasm with time for Saccharomyces cerevisiae, Pseudomonas fluorescence and Bacillus megaterium, respectively in presence of L.Zn (Scheme 1, Formula 1A) (D1) and L.Zn.α-CD (Scheme 2) (D2). […]

[3] = Lipophilic nature of the dye

## CN(C)c1ccc(N=Nc2ccc(S(=O)(=O)N3CCCNCCNCCCNCC3)cc2)cc1.O=[N+]([O-])[O-].O=[N+]([O-])[O-].[Zn+2] [L.Zn]
[1]; aqueous solution
  association constant of inclusion complex with α-CD: 255 (+15) M^−1
[1]; aqueous solution (as printed in b187)
  association constant of inclusion complex with α-CD: 255 (±15) M^1
[2]; in presence of α-CD
  incubation time needed for staining: 2 min
[2]; through different color intensities and shape of the stained cells
  distinguishing Gram +ve and Gram −ve bacteria: could also distinguish Gram +ve and Gram −ve bacteria
[2]; without α-CD
  time in which staining takes place: 10 to 20 min
[3]
  lipophilic nature: non-lipophilic
